From patent US12006311B2, “Compounds for use in preventing or treating cancer” (FUNDACIÓ HOSPITAL UNIVERSITARI VALL D'HEBRON—INSTITUT DE …, priority 2018, dated 2024)

Tests used:
[1] = test system: rhabdomyosarcoma cell line RH4; assay: cell growth test based on Methyl violet staining, RH4; settings: for anti-proliferative activity (cell growth in percentage with respect to vehicle-treated cells): 10 microM, 5 days of incubation, compared with Vismodegib (FIG. 1)
Description: (§1) FIG. 1 represents the effects in percentage with respect to vehicle-treated cells (DMSO) of five compounds according to formula (I) (IUCT-0460, IUCT-0462, IUCT-0463, IUCT-0467, IUCT-0469) and the reference compound Vismodegib on cell growth of RH4 rhabdomyosarcoma cells after 5 day incubation (mean+/−SD). All compounds were used at a concentration of 10 microM. Statistical analysis was performed using ANOVA. As statistical differences were observed (p=0), the pairwise comparison against the vehicle control was made using the Tukey test. Notation: ***=statistically-significant difference with a p-value<0.001, **=p-value<0.01 and *=p-value<0.05.
(§2) The measurements were taken using an in vitro test to measure cell growth based on Methyl violet staining after 5 days of incubation with the aforementioned drugs or control vehicle (DMSO). The procedure was carried out in a 96-well plate and cells were fixed for 30 minutes with 4% paraformaldehyde (PFA) at room temperature. After 3 washes with phosphate-buffered saline (PBS), cells were stained for 30 minutes at room temperature with Methyl violet (dilution 1/25 of a stock solution made with 1.5% w/v in PBS). After 5 washes, and the addition of acetic acid (15% in water), plates were read in a spectrophotometer at 590 nm. All conditions were tested in 8 independent wells and results expressed as a mean of all replicates (FIG. 1).
Additional measurements using the same procedure were made specifically for the compound IUCT-0463 to obtain a dose-response curve from 1 to 50 μM in the cell line RH4.

[2] = test system: rhabdomyosarcoma cell line RD; assay: cell growth test based on Methyl violet staining, RD; settings: RD cells; for anti-proliferative activity (cell growth in percentage with respect to the vehicle control): 10 microM, 5 days of incubation, compared with Vismodegib (FIG. 3)
Description: as §1, with “FIG. 3” for “FIG. 1”, “effects (in” for “effects in”, “to the vehicle control DMSO)” for “to vehicle-treated cells (DMSO)”, “of RD” for “of RH4”
as §2, with “3).” for “1).”
Additional measurements using the same procedure were made specifically for the compound IUCT-0463 to obtain a dose-response curve from 1 to 50 μM in the cell line RD.

[3] = test system: panel of cancer cell lines (RD, RH4, RH30, SKNBE2, SKNAS, U373MG, SKES1, TC71, PC3, HeLa, A549, MDA-MB231, HCT116); assay: cell growth test based on Methyl violet staining, panel of cancer cell lines; settings: panel of 13 cancer cell lines, 10 microM, 5 day incubation (FIG. 5)
Description: The cell lines analyzed are as follows: RD, RH4 and RH30 (rhabdomyosarcoma, RMS); SKNBE2 and SKNAS (neuroblastoma, NBL); U373MG (glioblastoma, GBL); SKES1 and TC71 (Ewing's sarcoma, EWING); PC3 (prostate cancer, PC); HeLa (epitheloid cervix carcinoma, ECC); A549 (lung cancer, LC); MDA-MB231 (breast cancer, BC) and HCT116 (colorectal cancer, CC). Statistical analysis was performed using ANOVA. As statistical differences were observed (p=0), the pairwise comparison against the vehicle control was made using the Tukey test. Notation: ***=statistically-significant difference with a p-value<0.001, **=p-value<0.01 and *=p-value<0.05.
With the compound showing a better cell growth reduction (IUCT-0463), additional tests were performed with the aim of studying the possible application of this family of compounds to other cancers. The procedure was carried out in a 96-well plate and cells were fixed for 30 minutes with 4% paraformaldehyde (PFA) at room temperature. After 3 washes with phosphate-buffered saline (PBS), cells were stained for 30 minutes at room temperature with Methyl violet (dilution 1/25 of a stock solution made with 1.5% w/v in PBS). After 5 washes, and the addition of acetic acid (15% in water), plates were read in a spectrophotometer at 590 nm.

Compound | anti-proliferative activity (cell growth in percentage with respect to vehicle-treated cells) [1] | anti-proliferative activity (cell growth in percentage with respect to the vehicle control) [2] | anti-tumor activity, dose-response curve ([1]; RH4 cells, dose-response curve from 1 to 50 μM, compared with Vismodegib (FIG. 2)) | cell proliferation (cell growth in percentage with respect to the vehicle control) [3] | anti-tumor activity, dose-response curve ([2]; dose-response curve from 1 to 50 μM, compared with Vismodegib (FIG. 4))
CCOC(=O)CN(C1CCCN(c2ccc(-c3ccccc3OC)cc2F)C1=O)S(=O)(=O)c1ccc(-c2ccccn2)s1 (stereo not shown) [IUCT-0469, Ethyl N-(1-(3-fluoro-2′-methoxy-[1,1′-biphenyl]-4-yl)-2-oxopiperidin-3-yl)-N-((5-(pyridin-2-yl)thiophen-2-yl)sulfonyl)glycinate] | better anti-proliferative activity than the reference compound Vismodegib | better anti-proliferative activity than the reference compound Vismodegib | – | – | –
COc1ccccc1-c1ccc(N2CCCC(NS(=O)(=O)c3cc(Cl)c(Cl)s3)C2=O)c(F)c1 (stereo not shown) [IUCT-0460, 4,5-Dichloro-N-(1-(3-fluoro-2′-methoxy-[1,1′-biphenyl]-4-yl)-2-oxopiperidin-3-yl)thiophene-2-sulfonamide] | better anti-proliferative activity than the reference compound Vismodegib | better anti-proliferative activity than the reference compound Vismodegib | – | – | –
COc1ccccc1-c1ccc(N2CCCC(NS(=O)(=O)c3ccc(-c4ccccn4)s3)C2=O)c(F)c1 (stereo not shown) [IUCT-0463, N-(1-(3-fluoro-2′-methoxy-[1,1′-biphenyl]-4-yl)-2-oxopiperidin-3-yl)-5-(pyridin-2-yl)thiophene-2-sulfonamide] | better anti-proliferative activity than the reference compound Vismodegib | better anti-proliferative activity than the reference compound Vismodegib | clear improvement of the anti-tumor activity when compared to the reference compound Vismodegib | remarkable rediction of cell proliferation in the majority of the cell lines analized | clear improvement of the anti-tumor activity when compared to the reference compound Vismodegib
COc1ccccc1-c1ccc(N2CCCC(N(CC(=O)N3CCOCC3)S(=O)(=O)c3ccc4c(c3)OCO4)C2=O)c(F)c1 (stereo not shown) [IUCT-0467, N-(1-(3-fluoro-2′-methoxy-[1,1′-biphenyl]-4-yl)-2-oxopiperidin-3-yl)-N-(2-morpholino-2-oxoethyl)benzo[d][1,3]dioxole-5-sulfonamide] | better anti-proliferative activity than the reference compound Vismodegib | better anti-proliferative activity than the reference compound Vismodegib | – | – | –
COc1ccccc1-c1ccc(N2CCCC(NS(=O)(=O)c3ccc4c(c3)OCO4)C2=O)c(F)c1 (stereo not shown) [IUCT-0462, N-(1-(3-fluoro-2′-methoxy-[1,1′-biphenyl]-4-yl)-2-oxopiperidin-3-yl)benzo[d][1,3]dioxole-5-sulfonamide] | better anti-proliferative activity than the reference compound Vismodegib | better anti-proliferative activity than the reference compound Vismodegib | – | – | –
